What all share (format): cell-based
Data set [1] deals with T1, ABCB1 (Homo sapiens, UniProt P08183).
T1 construct: ABCB1-overexpressing A2780/ADR (30,000 cells/well); host or cells: A2780/ADR
Kind of data set: calcein AM fluorescence accumulation assay, ABCB1-overexpressing A2780/ADR cells. To be noted: for activity against ABCB1 in preliminary screening: screened at 10 µM, active = at least 20% (+SEM) of effect of 10 µM compound 2. The procedure: (§1) Compounds 16–25 were screened at 10 µM in calcein AM (ABCB1 and ABCC1) as well as pheophorbide A (ABCG2) fluorescence accumulation assays using either ABCB1-overexpressing A2780/ADR, ABCC1-overexpressing H69AR, or ABCG2-overexpressing MDCK II BCRP cells, respectively, as reported earlier, [43], [45], [67], [101]. Calcein AM and pheophorbide A are substrates of ABCB1 and ABCC1 as well as ABCG2, respectively, which passively diffuse into the used cells and become extruded by the corresponding ABC transporter. Inhibition of the respective transporter results in the accumulation of these substrates. Calcein AM is subsequently cleaved by intracellular esterases to the fluorescent calcein, while pheophorbide A is already fluorescent. Intracellular fluorescence was determined via microplate reader (calcein AM; ABCB1 and ABCC1) and flow cytometry (pheophorbide A; ABCG2), respectively. Compounds 2 (Fig. 1) and 26–27 (Fig. 5) were used as reference inhibitors against ABCB1, ABCC1, and ABCG2, respectively, as reported before, [101]. Fig. 7 provides the screening results for ABCB1 (A), ABCC1 (B), and ABCG2 (C).
(§2) The ABCB1-overexpressing A2780/ADR cells were delivered by European Collection of Animal Cell Culture (ECACC, no. 93112520) and cultivated using RPMI-1640 medium (PAN-Biotech GmbH, Aidenbach, Germany) complemented with fetal bovine serum (FCS; 10%; PAN-Biotech GmbH, Aidenbach, Germany), streptomycin (50 µg/µL; PAN-Biotech GmbH, Aidenbach, Germany), penicillin G (50 U/mL; PAN-Biotech GmbH, Aidenbach, Germany), as well as L-glutamine (2 mM; PAN-Biotech GmbH, Aidenbach, Germany). The ABCC1-overexpressing H69AR cells were provided by American Type Culture Collection (ATCC CRL-11351), which were cultured with RPMI-1640 medium to which FCS (20%), streptomycin (50 µg/µL), penicillin G (50 U/mL), as well as L-glutamine (2 mM) were added. Dr. A. Schinkel (The Netherlands Cancer Institute, Amsterdam, The Netherlands) generously provided the ABCG2-overexpressing MDCK II BCRP cells, which were cultivated in Dulbecco's modified eagle medium (DMEM; Sigma Life Science, Steinheim, Germany) complemented with FCS (10%), streptomycin (50 µg/µL), penicillin G (50 U/mL), as well as L-glutamine (2 mM). The cell lines were stored in a mixture of 90% cell culture medium and 10% DMSO under liquid nitrogen, while cultivation was performed at 37 °C under 5% CO2-humidified atmosphere. After a confluence of 90% was reached, the cells were harvested using a 0.05%/0.02% trypsin-EDTA solution (PAN-Biotech GmbH, Aidenbach, Germany). […]
(§3) The inhibitory activity against ABCB1 and ABCC1 was evaluated in a calcein AM assay as reported earlier, [67], [101]. […] The incubation period at 37 °C under 5% CO2-humidified atmosphere lasted 30 min before 20 µL of a 3.125 µM calcein AM was added to each well, subsequently followed by measurement of fluorescence increase at an excitation wavelength of 485 nm and an emission wave length of 520 nm in 60 sec intervals for 1 h in either POLARstar and FLUOstar Optima microplate readers (BMG Labtech, software versions 2.00R2/2.20 and 4.11-0; Offenburg, Germany).

The target in data set [2] is T2, ABCC1 (Homo sapiens, UniProt P33527).
T2 construct: ABCC1-overexpressing H69AR (60,000 cells/well) cells were added; host or cells: H69AR
Kind of data set: calcein AM fluorescence accumulation assay, ABCC1-overexpressing H69AR cells. Particulars: for activity against ABCC1 in preliminary screening: screened at 10 µM, active = at least 20% (+SEM) of effect of 10 µM compound 26. The procedure: as §1
as §2, with “mM).” for “mM). The cell lines were stored in a mixture of 90% cell culture medium and 10% DMSO under liquid nitrogen, while cultivation was performed at 37 °C under 5% CO2-humidified atmosphere. After a confluence of 90% was reached, the cells were harvested using a 0.05%/0.02% trypsin-EDTA solution (PAN-Biotech GmbH, Aidenbach, Germany).”
as §3

In data set [3] the target is T3, ABCG2 (Homo sapiens, UniProt Q9UNQ0).
T3 construct: host or cells: MDCK II BCRP
T3 sequence (Q9UNQ0 1-655): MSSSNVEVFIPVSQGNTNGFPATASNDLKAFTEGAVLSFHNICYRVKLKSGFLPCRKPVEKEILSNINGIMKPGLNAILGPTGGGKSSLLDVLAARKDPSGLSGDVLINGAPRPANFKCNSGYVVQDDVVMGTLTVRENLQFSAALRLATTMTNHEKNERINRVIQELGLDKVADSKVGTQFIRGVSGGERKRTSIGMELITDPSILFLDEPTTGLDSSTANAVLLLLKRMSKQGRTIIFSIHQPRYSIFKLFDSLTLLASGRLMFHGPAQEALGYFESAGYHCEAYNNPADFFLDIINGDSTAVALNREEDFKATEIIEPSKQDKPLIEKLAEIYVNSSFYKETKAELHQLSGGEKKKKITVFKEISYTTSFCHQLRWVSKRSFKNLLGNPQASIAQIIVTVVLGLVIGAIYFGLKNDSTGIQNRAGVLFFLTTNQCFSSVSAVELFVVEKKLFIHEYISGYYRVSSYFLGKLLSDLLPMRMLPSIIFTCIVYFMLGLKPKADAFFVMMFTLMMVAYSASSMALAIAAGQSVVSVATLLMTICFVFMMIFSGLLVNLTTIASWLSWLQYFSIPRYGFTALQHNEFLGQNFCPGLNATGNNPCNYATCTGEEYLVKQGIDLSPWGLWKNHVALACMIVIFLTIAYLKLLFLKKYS
Kind of data set: pheophorbide A fluorescence accumulation assay, ABCG2-overexpressing MDCK II BCRP cells. The procedure: as §1, with “Fig. 7 provides the screening results for ABCB1 (A), ABCC1 (B), and ABCG2 (C).” left out
The inhibitory activity against ABCG2 was evaluated in a pheophorbide A assay as reported earlier, [67]. […] The effect values of compounds 16–25 were measured via flow cytometry [Guava easyCyte^TM HT, (Merck Millipore, Billerica, MA, USA; excitation: 488 nm; emission: 695/50 nm)] and compared to the effect value of 10 µM of compound 27.

As a reminder, the IC50 is the midpoint of a concentration-inhibition curve.

T1 sequence (P08183 whole entry): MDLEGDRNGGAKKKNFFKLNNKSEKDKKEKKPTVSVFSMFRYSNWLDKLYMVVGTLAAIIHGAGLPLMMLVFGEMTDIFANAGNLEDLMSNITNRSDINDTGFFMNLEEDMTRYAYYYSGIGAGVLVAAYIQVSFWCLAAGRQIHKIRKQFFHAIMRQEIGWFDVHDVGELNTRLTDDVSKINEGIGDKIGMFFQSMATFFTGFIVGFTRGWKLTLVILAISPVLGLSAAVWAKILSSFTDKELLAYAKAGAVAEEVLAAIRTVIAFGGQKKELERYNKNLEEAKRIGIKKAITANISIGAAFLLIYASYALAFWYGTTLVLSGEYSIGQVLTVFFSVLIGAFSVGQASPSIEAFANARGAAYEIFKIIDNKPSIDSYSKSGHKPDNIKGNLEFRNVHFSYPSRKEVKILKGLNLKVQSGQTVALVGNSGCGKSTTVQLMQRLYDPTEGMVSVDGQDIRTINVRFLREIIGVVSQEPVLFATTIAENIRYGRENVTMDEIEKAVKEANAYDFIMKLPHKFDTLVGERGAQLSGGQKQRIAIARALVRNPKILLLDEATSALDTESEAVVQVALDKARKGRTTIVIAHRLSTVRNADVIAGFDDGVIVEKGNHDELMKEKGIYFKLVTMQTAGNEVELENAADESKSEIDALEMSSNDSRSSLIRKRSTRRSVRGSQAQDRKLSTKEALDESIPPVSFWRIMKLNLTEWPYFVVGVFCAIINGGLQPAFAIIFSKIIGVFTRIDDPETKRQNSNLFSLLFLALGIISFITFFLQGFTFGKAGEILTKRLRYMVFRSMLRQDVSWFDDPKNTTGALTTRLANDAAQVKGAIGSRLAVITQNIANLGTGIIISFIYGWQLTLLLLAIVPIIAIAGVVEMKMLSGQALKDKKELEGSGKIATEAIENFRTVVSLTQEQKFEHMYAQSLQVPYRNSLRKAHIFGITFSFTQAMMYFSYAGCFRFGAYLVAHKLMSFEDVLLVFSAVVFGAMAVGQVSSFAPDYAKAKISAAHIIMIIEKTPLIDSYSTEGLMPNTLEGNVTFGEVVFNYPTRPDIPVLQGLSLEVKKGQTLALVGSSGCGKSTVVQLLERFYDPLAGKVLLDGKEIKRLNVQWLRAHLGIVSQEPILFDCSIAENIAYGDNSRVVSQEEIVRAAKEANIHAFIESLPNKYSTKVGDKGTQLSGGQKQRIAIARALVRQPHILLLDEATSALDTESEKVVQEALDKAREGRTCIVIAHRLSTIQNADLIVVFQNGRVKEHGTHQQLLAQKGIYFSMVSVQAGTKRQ
T2 sequence (P33527 whole entry): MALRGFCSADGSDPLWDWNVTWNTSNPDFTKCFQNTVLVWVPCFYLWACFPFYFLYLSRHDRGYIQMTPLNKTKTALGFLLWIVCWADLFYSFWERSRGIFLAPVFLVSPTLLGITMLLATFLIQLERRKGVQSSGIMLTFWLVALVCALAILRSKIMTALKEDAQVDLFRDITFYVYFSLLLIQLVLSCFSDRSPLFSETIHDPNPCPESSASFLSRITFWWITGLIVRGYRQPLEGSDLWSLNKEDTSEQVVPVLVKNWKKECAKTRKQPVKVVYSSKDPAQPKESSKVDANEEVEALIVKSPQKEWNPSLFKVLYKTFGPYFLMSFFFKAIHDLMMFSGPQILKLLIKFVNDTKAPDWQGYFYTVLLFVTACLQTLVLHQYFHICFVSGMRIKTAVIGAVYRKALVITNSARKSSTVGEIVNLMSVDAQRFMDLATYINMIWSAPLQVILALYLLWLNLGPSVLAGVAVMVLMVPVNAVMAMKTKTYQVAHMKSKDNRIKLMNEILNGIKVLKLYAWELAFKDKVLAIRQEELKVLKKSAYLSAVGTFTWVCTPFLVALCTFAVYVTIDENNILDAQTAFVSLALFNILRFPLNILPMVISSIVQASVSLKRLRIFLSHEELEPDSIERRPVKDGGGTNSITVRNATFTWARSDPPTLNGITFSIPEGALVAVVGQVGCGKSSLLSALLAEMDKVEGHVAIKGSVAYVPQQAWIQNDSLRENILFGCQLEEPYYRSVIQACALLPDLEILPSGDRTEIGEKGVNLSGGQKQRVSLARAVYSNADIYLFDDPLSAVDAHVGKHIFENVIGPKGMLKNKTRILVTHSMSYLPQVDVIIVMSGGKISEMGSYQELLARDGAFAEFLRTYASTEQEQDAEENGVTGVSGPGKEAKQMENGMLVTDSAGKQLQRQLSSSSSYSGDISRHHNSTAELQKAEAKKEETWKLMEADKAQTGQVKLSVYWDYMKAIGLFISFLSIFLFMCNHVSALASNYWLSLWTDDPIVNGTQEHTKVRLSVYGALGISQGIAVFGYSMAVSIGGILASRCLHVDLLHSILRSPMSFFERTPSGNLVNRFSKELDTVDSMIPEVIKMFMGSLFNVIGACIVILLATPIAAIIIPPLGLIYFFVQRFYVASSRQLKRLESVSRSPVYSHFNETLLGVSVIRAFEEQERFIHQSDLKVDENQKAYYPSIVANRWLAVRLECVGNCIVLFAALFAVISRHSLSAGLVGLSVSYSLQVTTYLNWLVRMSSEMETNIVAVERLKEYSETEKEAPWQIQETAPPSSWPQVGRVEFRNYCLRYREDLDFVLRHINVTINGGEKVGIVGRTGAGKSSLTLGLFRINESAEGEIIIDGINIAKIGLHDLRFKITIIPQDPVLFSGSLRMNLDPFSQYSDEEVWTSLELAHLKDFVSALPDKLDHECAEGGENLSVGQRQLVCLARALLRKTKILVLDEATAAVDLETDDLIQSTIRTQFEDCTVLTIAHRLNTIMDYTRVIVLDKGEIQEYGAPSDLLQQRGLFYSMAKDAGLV

Take `Cc1onc(-c2ccccc2)c1-c1nnc(CN2CCCC2c2ccc3c(c2)OCCCO3)o1` (centres unmarked) [compound 16, 2-((2-(3,4-dihydro-2H-benzo[b][1,4]dioxepin-7-yl)pyrrolidin-1-yl)methyl)-5-(5-methyl-3-phenyl-isoxazol-4-yl)-1,3,4-oxadiazole]: in data set [1], the “activity against ABCB1 in preliminary screening” value (“activity against ABCB1” below) is on record as “activities against ABCB1”. The “activity against ABCC1 in preliminary screening” value (from here on “activity against ABCC1”) in data set [2] is listed as “inhibited ABCC1”.
Consider `O=C(NC1CCC(OC(=O)c2cncn2-c2ccc(F)cc2)CC1)c1cncn1-c1ccc(F)cc1` (centres unmarked) [compound 17, 4-(1-(4-fluorophenyl)-1H-imidazole-5-carboxamido)cyclohexyl 1-(4-fluorophenyl)-1H-imidazole-5-carboxylate], for which the “activity against ABCB1” value in data set [1] was “activities against ABCB1”.
For `O=C(CN1CCN(C(=O)Cn2cnc3scc(-c4cccs4)c3c2=O)CC1)N1CCCCCC1` [compound 18, 3-(2-(4-(2-(azepan-1-yl)-2-oxoethyl)piperazin-1-yl)-2-oxoethyl)-5-(thiophen-2-yl)thieno[2,3-d]pyrimidin-4(3H)-one], in data set [2], the “activity against ABCC1” value was “inhibited ABCC1”.
`O=C(c1cccn1-c1nnc(N2CCCC2)s1)N1CCN(Cc2ccc3c(c2)OCO3)CC1` [compound 19, (4-(benzo[d][1,3]dioxol-5-ylmethyl)piperazin-1-yl)(1-(5-(pyrrolidin-1-yl)-1,3,4-thiadiazol-2-yl)-1H-pyrrol-2-yl)methanone]: the “activity against ABCB1” value in data set [1] is “activities against ABCB1”.
For the molecule `C1=CC2=NC3N4CN(CCCN5CCOCC5)CNC4=NC(c4ccccn4)N3C2C=C1` (centres unmarked) [compound 20, 4-(3-(6-(pyridin-2-yl)-4,6,7a,12a-tetrahydro-1H-benzo[4,5]imidazo[1,2-a][1,3,5]triazino[1,2-c][1,3,5]triazin-2(3H)-yl)propyl)morpholine], the “activity against ABCB1” value in data set [1] is “did inhibit neither of the evaluated transporters”. Besides, the “activity against ABCC1” value in data set [2] was “did inhibit neither of the evaluated transporters”. In data set [3] (screened at 10 µM, active = at least 20% (+SEM) of effect of 10 µM compound 27), the “activity against ABCG2 in preliminary screening” value is “did inhibit neither of the evaluated transporters”.
With `Cc1nc(N2CCN(C(=O)C(c3ccccc3)c3ccccc3)CC2)cc(-n2ccnc2)n1` [compound 23, 1-(4-(6-(1H-imidazol-1-yl)-2-methylpyrimidin-4-yl)piperazin-1-yl)-2,2-diphenylethan-1-one], the IC50 in data set [1] (calcein AM assay, A2780/ADR cells, 100% = 10 µM reference inhibitor 2, read-out: IC50 against ABCB1) was 4.01 µM; in data set [2] (calcein AM assay, H69AR cells, 100% = 10 µM reference inhibitor 26, read-out: IC50 against ABCC1), 14.8 µM; in data set [3] (pheophorbide A assay, MDCK II BCRP cells, 100% = 10 µM reference inhibitor 27, read-out: IC50 against ABCG2), 9.27 µM.

Source of the values: publication PMC8193046, “Scaffold fragmentation and substructure hopping reveal potential, robustness, and limits of computer-aided pattern analysis (C@PA)” (Computational and Structural Biotechnology Journal, 2021).
